Data taken from the supplement of paper PMC10307832.

Columns and labels:
Assay in all cases: relative viability (nuclei count vs DMSO), 5 days (fraction); higher = more cells survive
Entinostat + Linsitinib = compound: Nc1ccccc1NC(=O)c1ccc(CNC(=O)OCc2cccnc2)cc1 [Entinostat] + C[C@]1(O)C[C@@H](c2nc(-c3ccc4ccc(-c5ccccc5)nc4c3)c3c(N)nccn32)C1 [Linsitinib] (partner 1 µM)
How it was run: (§1)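 One day after seeding in 1536-well plates, lung cancer cell lines were dosed by pin tool. Dosing was either single-drug or a fixed anchor-drug dose plus five library-drug doses (not always all listed) in √10 steps. After 5 days, nuclei were stained in one fix-and-stain step and counted on 4× images, and relative viability is the nuclei count of treated wells over that of vehicle wells, given as the median of duplicate plates.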

SGI-1776 + Phenformin = compound: CN1CCC(CNc2ccc3ncc(-c4cccc(OC(F)(F)F)c4)n3n2)CC1 [SGI-1776] + N=C(N)NC(=N)NCCc1ccccc1 [Phenformin] (partner 250 µM)
How it was run: as §1

[1] = compound: C1COCCN1C2=NC(=NC3=C2OC4=C3C=CC=N4)C5=CC(=CC=C5)NC(=O)C6=CN=C(C=C6)N + N=C(N)NC(=N)NCCc1ccccc1 [Phenformin] (partner 250 µM)
How it was run: as §1

[2] = compound: C1COCCN1C2=NC(=NC3=C2OC4=C3C=CC=N4)C5=CC(=CC=C5)NC(=O)C6=CN=C(C=C6)N + O=C(CCCCCCC(=O)Nc1ccccc1)NO [Vorinostat] (partner 1 µM)
How it was run: as §1

UMC-11
relative viability (Entinostat + Linsitinib; first compound 0.02 µM): 1.11
relative viability (Entinostat + Linsitinib; first compound 0.06325 µM): 1
relative viability (Entinostat + Linsitinib; first compound 0.2 µM): 0.715
relative viability (Entinostat + Linsitinib; first compound 0.6325 µM): 0.214
relative viability (Entinostat + Linsitinib; first compound 2 µM): 0.142
relative viability (SGI-1776 + Phenformin; first compound 0.08 µM): 0.31
relative viability (SGI-1776 + Phenformin; first compound 0.8 µM): 0.322
relative viability (SGI-1776 + Phenformin; first compound 2.53 µM): 0.302
relative viability (SGI-1776 + Phenformin; first compound 8 µM): 0.252
relative viability ([1]; first compound 0.02 µM): 0.302
relative viability ([1]; first compound 0.06325 µM): 0.327
relative viability ([1]; first compound 0.2 µM): 0.33
relative viability ([1]; first compound 0.6325 µM): 0.308
relative viability ([1]; first compound 2 µM): 0.204
relative viability ([2]; first compound 0.02 µM): 0.415
relative viability ([2]; first compound 0.06325 µM): 0.382
relative viability ([2]; first compound 0.2 µM): 0.352
relative viability ([2]; first compound 0.6325 µM): 0.369
relative viability ([2]; first compound 2 µM): 0.264
